Test results as given in patent publication US9428456B2, “1-[m-carboxamido(hetero)aryl-methyl]-heterocyclyl-carboxamide derivatives” (Actelion Pharmaceuticals Ltd., priority 2012, dated 2016).
pEC50: −log10 of the molar value.

Target: CXCR7 (Homo sapiens (Human), UniProt P25106)
Test: PathHunter CHO-K1 CXCR7 b-arrestin assay (agonistic activity)
Format: cell-based
Conditions: PathHunter CHO-K1 CXCR7 b-arrestin cell line
Description: The CXCl12 receptor and CXCR7 agonistic activities of the compounds of formula (I) are determined in accordance with the following experimental method.
The assay is using the PathHunter™ CHO-K1 CXCR7 b-arrestin cell line from DiscoverX. The system is based on the Enzyme Fragment Complementation Technology. Two complementing fragments of the b-galactosidase enzyme are expressed within stably transfected cells. The larger portion of b-gal, termed EA for Enzyme Acceptor, is fused to the C-terminus of b-arrestin 2. The smaller fragment, termed ProLink™ tag, is fused to CXCR7 at the C-terminus. Upon activation, b-arrestin is recruited which forces the interaction of ProLink and EA, allowing complementation of the two fragments of b-gal and the formation of a functional enzyme which is capable of hydrolysing the substrate and generating a chemiluminescent signal.
CHO-K1 CXCR7 b-arrestin cells are detached from culture dishes with a cell dissociation buffer (Invitrogen, #13151-014) and collected in growing medium (F12 HAMS 90% (v/v)/FCS 10% (v/v), Penicilin/streptomycin 1% (v/v)). 5000 cells per well (in 20 μl) are seeded in a 384 well plate (white-walled, clear bottom; BD Falcon #353274). The plate is incubated at 37° C./5% CO2 for 24 hours. Medium is then replaced by 20 μl OPTIMEM (Invitrogen #31985) for 3 to 4 hours. Test compounds are dissolved at 10 mM in DMSO and serially diluted in DMSO to 200× of the final concentration for dose response curves. Compounds are then diluted 1:33.3 in HBSS1×. 5 μl/well of HBSS1×/20 mM HEPES/0.2% BSA are added to the assay plate followed by addition of 5 μl/well of diluted compounds. CXCL12 (Peprotech #300-28A) may be used as a reference agonist. The plate is incubated for 90 minutes at 37° C. 12 μl of detection reagent (Path Hunter Detection Kit, DiscoveRx, #93-0001) is transferred to the assay plate and to the plate is incubated for 1 hour at room temperature. Luminescent signal is read in a microplate reader (FLUOstar Optima, bmg). The calculated EC50 values may fluctuate depending on the daily cellular assay performance. Fluctuations of this kind are known to those skilled in the art. Average EC50 values from several measurements are given as geometric mean values.

Sequence of CXCR7 (P25106 whole entry): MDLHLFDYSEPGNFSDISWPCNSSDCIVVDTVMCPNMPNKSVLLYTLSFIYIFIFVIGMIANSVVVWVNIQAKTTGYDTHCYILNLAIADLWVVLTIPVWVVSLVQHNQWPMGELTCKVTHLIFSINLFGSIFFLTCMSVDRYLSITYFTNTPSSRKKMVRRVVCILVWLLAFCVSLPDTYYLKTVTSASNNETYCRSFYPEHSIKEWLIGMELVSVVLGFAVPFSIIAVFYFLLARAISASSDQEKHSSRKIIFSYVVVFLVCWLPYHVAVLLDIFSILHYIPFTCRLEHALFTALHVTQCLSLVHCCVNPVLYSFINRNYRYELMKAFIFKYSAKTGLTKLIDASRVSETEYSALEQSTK
Sequence of CXCR7 (P32121 whole entry partner): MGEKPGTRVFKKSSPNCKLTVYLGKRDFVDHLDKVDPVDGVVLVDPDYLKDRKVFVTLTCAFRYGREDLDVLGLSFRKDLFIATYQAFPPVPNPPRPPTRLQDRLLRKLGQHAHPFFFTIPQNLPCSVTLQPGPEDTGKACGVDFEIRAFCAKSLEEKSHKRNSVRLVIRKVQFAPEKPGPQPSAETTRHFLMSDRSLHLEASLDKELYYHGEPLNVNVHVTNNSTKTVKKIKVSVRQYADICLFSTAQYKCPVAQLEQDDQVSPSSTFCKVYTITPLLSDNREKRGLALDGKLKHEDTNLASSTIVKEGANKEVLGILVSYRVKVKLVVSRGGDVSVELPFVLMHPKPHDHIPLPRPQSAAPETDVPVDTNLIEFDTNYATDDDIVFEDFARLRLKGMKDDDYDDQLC

Compound | pEC50
O=C(Nc1cccc(CN2CCC(C(=O)NC3CCCCC3)CC2)c1)c1cc(F)cc(Cl)c1 [Example 1.131] | 8.40
Cc1cc(C(=O)Nc2cccc(CN3CCC(C(=O)NC(C)(C)C)CC3)c2)c(Cl)nn1 [Example 1.324] | 7.29
O=C(Nc1ccnc(CN2CCC(C(=O)NC3CCCCC3)CC2)n1)c1cccc(C(F)(F)F)n1 [Example 1.284] | 6.65
O=C(Nc1cccc(CN2CCC(C(=O)NC3CCCCC3)CC2)c1)c1cccc(F)c1F [Example 1.128] | 8.30
CC(c1cccc(NC(=O)c2ccc(F)cc2)c1)N1CCC(C(=O)NC2CCCCC2)CC1 (centres unmarked) [Example 1.166] | 8.00
CC(C(=O)Nc1cccc(CN2CCC(C(=O)NC(C)(C)C)CC2)c1)c1ccccc1 (racemic) [Example 1.079] | 8.52
Cc1cccnc1C(=O)Nc1cccc(CN2CCC(C(=O)NC3CCCCC3)CC2)c1 [Example 1.061] | 9.00
O=C(Cc1ccc(F)cc1Cl)Nc1cccc(CN2CCC(C(=O)NC3CCCCC3)C2)c1 (racemic) [Example 2.100, rac-1-{3-[2-(2-Chloro-4-fluoro-phenyl)-acetylamino]-benzyl}-pyrrolidine-3-carboxylic acid cyclohexylamide] | 6.79
COc1c(CN2CCC(C(=O)NC(C)(C)C)CC2)cccc1NC(=O)c1cccc(C(F)(F)F)n1 [Example 1.319] | 7.35
O=C(Nc1cccc(CN2CCC(C(=O)NC3CCCCC3)C2)c1)c1cccc(C(F)(F)F)n1 (racemic) [Example 2.099, rac-6-Trifluoromethyl-pyridine-2-carboxylic acid [3-(3-cyclohexylcarbamoyl-pyrrolidin-1-ylmethyl)-phenyl]-amide] | 7.22
CCC(C)(C)NC(=O)C1CCN(Cc2cccc(NC(=O)c3ccc(Cl)c[n+]3[O-])c2)CC1 [Example 4.025, 5-Chloro-1-oxy-pyridine-2-carboxylic acid {3-[4-(1,1-dimethyl-propylcarbamoyl)-piperidin-1-ylmethyl]-phenyl}amide] | 8.70
Cc1c(Cl)cccc1C(=O)Nc1cccc(CN2CCC(C(=O)NC3CCCCC3)CC2)c1 [Example 1.120] | 7.46
CC(c1cccc(NC(=O)Cc2cccc(C(F)(F)F)c2)c1)N1CCC(C(=O)NC2CCCCC2)CC1 (racemic) [Example 1.173] | 7.59
Cc1c(F)cccc1C(=O)Nc1cccc(CN2CCC(C(=O)NC3CCCCC3)CC2)c1 [Example 1.114] | 7.89
Cc1nc(CC(=O)Nc2cccc(CN3CCC(C(=O)NC(C)(C)C)CC3)c2)c(C)s1 [Example 1.261] | 8.70
O=C(Nc1cccc(CN2CCC(C(=O)NC3CCCCC3)CC2)c1)c1cc(C(F)(F)F)ccn1 [Example 1.155] | 7.92
O=C(Nc1cccc(CN2CCC(C(=O)NC3CCCCC3)CC2)c1)c1ccc(C(F)(F)F)cc1 [Example 1.105] | 8.30
CC(C)(C)NC(=O)C1CCN(Cc2cccc(NC(=O)C3(c4ccccc4)CC3)c2)CC1 [Example 1.309] | 9.00
C[C@H]1C[C@@H](C(=O)NC(C)(C)C)CCN1Cc1cccc(NC(=O)c2cccc(C(F)(F)F)n2)c1 (racemic) [Example 2.102, rac-6-Trifluoromethyl-pyridine-2-carboxylic acid [3-((2S*,4S*)-4-tert-butylcarbamoyl-2-methyl-piperidin-1-ylmethyl)-phenyl]-amide] | 8.40
Cc1cc(C)nc(C(=O)Nc2cccc(CN3CCC(C(=O)NC4CCCCC4)CC3)c2)c1 [Example 1.083] | 7.96
CC(C)(C)NC(=O)C1CCN(Cc2cccc(NC(=O)c3ccc4cnccc4n3)c2)CC1 [Example 1.234] | 8.70
CC(C)(C)NC(=O)C1CCN(Cc2cccc(NC(=O)Cc3ncccn3)c2)CC1 [Example 1.264] | 7.05
CC(c1cccc(NC(=O)c2cnccn2)c1)N1CCC(C(=O)NC2CCCCC2)CC1 (racemic) [Example 1.170] | 7.74
O=C(Nc1cccc(CN2CCC(C(=O)NC3CCCC3)CC2)c1)c1cncc(Cl)c1 [Example 1.209] | 9.00
Cc1ccc(CN2CCC(C(=O)NC(C)(C)C)CC2)cc1NC(=O)c1ccc(F)cc1 [Example 1.303] | 8.52

Compound | pEC50
O=C(Nc1ccc(Cl)c(CN2CCC(C(=O)NC3CCCC3)CC2)c1)c1ccc(F)cn1 [Example 1.224] | 9.40
O=C(Nc1cccc(CN2CCC(C(=O)NC3CCCC3)CC2)c1)c1cccnc1C(F)(F)F [Example 1.214] | 6.96
O=C(Nc1cccc(CN2CCC(C(=O)NC3CCCCC3)CC2)c1)c1coc2ccccc12 [Example 1.028] | 8.40
COc1ccc(C(=O)Nc2cccc(CN3CCC(C(=O)NC4CCCCC4)CC3)c2)cc1F [Example 1.123] | 8.40
C=CC(=O)Nc1cccc(CN2CCC(C(=O)NC(C)(C)C)CC2)c1 [Example 1.336] | 7.08
COc1ccc(OCC(=O)Nc2cccc(C(C)N3CCC(C(=O)NC4CCCCC4)CC3)c2)cc1 (racemic) [Example 1.175] | 6.74
CC(C)(C)NC(=O)C1CCN(Cc2cccc(NC(=O)Cc3ccc(F)cc3Cl)c2)CC1 [Example 1.248] | 8.70
O=C(Nc1cccc(CN2CCC(C(=O)NC3CCCCC3)CC2)c1)c1cccc2ccncc12 [Example 1.010] | 7.17
O=C(Nc1cccc(CN2CCC(C(=O)NC3CCCCC3)CC2)c1)c1ccccc1OC(F)(F)F [Example 1.095] | 8.30
O=C(CC1Cc2ccccc2C1)Nc1cccc(CN2CCC(C(=O)NC3CCCCC3)CC2)c1 [Example 1.052] | 7.44
CC(C)(C)NC(=O)C1CCN(Cc2cccc(NC(=O)C(C)(C)c3ccccc3)c2)CC1 [Example 1.311] | 9.00
O=C(Nc1cccc(CN2CCC(C(=O)NC3CCCCC3)CC2)c1)C1CCCCC1 [Example 1.151] | 8.00
CCC(C)NC(=O)C1CCCN(Cc2cccc(NC(=O)c3cncc(C)c3)c2)CC1 (racemic) [Example 1.288] | 7.48
Cc1cccc(C(=O)Nc2cccc(C(C)N3CCC(C(=O)NC4CCCCC4)CC3)c2)n1 (racemic) [Example 1.182] | 8.15
O=C(Nc1cccc(CN2CCC(C(=O)NC3CCCCC3)CC2)c1)c1ccc(C(F)(F)F)cc1F [Example 1.134] | 8.10
CC(C)Cc1ccc(C(=O)Nc2cccc(CN3CCC(C(=O)NC4CCCCC4)CC3)c2)cc1 [Example 1.041] | 7.37
COc1ccc(C(=O)Nc2cccc(CN3CCC(C(=O)NC4CCCCC4)CC3)c2)cn1 [Example 1.092] | 8.52
CC(C)(C)NC(=O)C1CCN(Cc2cccc(NC(=O)CC3CCOCC3)c2)CC1 [Example 1.255] | 6.86
O=C(Nc1cccc(CN2CCC(C(=O)NC3CCCCC3)CC2)c1Cl)c1ccc(Cl)cc1 [Example 1.162] | 5.56
CC(C)CN(C)C(=O)C1CCN(Cc2cccc(NC(=O)c3cccc(C(F)(F)F)n3)c2)CC1 [Example 1.274] | 8.05
O=C(Nc1cccc(CN2CCC(C(=O)NC3CCCC3)CC2)c1)c1cnc2ccccc2c1 [Example 1.211] | 8.52
Cc1ccc(C(=O)Nc2cccc(CN3CCC(C(=O)NC4CCCCC4)CC3)c2Cl)s1 [Example 1.163] | 6.41
O=C(Nc1cccc(CN2CCC(C(=O)NC3CCCCC3)CC2)c1)c1cccc[n+]1[O-] [Example 1.080] | 7.85
Cc1cc(C(=O)Nc2cccc(CN3CCC(C(=O)NC4CCCCC4)CC3)c2)ccn1 [Example 1.055] | 8.00
O=C(Nc1cccc(CN2CCC(C(=O)NC3CCCCC3)CC2)c1)c1c(F)cccc1F [Example 1.127] | 7.44
